Data taken from PMC12175177 (Frontiers in Pharmacology, 2025).
In brackets after ≈: the same amount, converted by molar mass. Structures can show the parent of a compound that is named as a salt.

How the values were obtained:
[1] = Cytotoxicity (MTT / CellTiter-Glo cell viability) in Vero-E6 cells; format: cell-based, African green monkey; conditions: African green monkey, Vero-E6 cells, at MNCC, 48 h exposure, normalized to untreated control; mean 2x
Source text: (§1) An 80% viability threshold was established for selecting the compounds for further analysis.

[2] = system: Vero-E6 and Calu-3 cells; experiment: Maximum non-cytotoxic concentration (MNCC) determination; format: cell-based; conditions: 48 h
Source text: as §1

[3] = system: Calu-3 cells; experiment: Cytotoxicity (MTT / CellTiter-Glo cell viability) in Calu-3 cells; format: cell-based, human; conditions: at MNCC, 48 h exposure, normalized to untreated control, mean 2x
Source text: as §1

[4] = as above; format: cell-based, human; conditions: human, Calu-3 cells, at MNCC, 48 h exposure, normalized to untreated control; mean 2x
Source text: as §1

[5] = system: Vero-E6 cells; experiment: Cytotoxicity (MTT / CellTiter-Glo cell viability) in Vero-E6 cells; format: cell-based, African green monkey; conditions: at MNCC, 48 h exposure, normalized to untreated control, mean 2x
Source text: as §1

[6] = CC50 determination in Vero E6 cells; conditions: African green monkey
Source text: (§2) DMSO was used as a negative control. To calculate the IC50 and CC50, a 4-parameter nonlinear regression sigmoidal concentration-response function was undertaken using the Prism 10 software package (GraphPad, Boston, MA, USA).

[7] = doses commonly administered in human treatments; ref Byakika-Kibwika et al., 2012 (ASi); Nicol et al., 2020 (CQ, HCQ); Gonzalez Canga et al., 2008 (IVM); Bhatia et al., 1986 (PQ); cited from earlier work
[8] = system: SARS-CoV-2; parameters: method as in Gendrot et al., 2020c; conditions: other studies; ref Gendrot et al., 2020c; cited from earlier work
[9] = system: Vero E6 cells; experiment: CC50 determination in Vero E6 cells; conditions: Vero E6
Source text: as §2

[10] = CC50 (Figure 4 curve), Vero-E6, sigmoidal 4PL fit

| Compound | viability at 48 h [1] | MNCC Concentration [2] | % viability Calu-3 [3] | viability at 48 h [4] | % viability Vero E6 [5] | other results |
| --- | --- | --- | --- | --- | --- | --- |
| CN1CCN(CCCN2c3ccccc3Sc3ccc(Cl)cc32)CC1 [Prochlorperazine (PCPZ), Prochlorperazine] | 80% | 30 µM | 77% | < 80% |  |  |
| O=C(Nc1cccc(C2=NCCN2)c1)Nc1cccc(C2=NCCN2)c1 [Imidocarb (IMI), Imidocarb] | 92% |  |  | 106% |  |  |
| Ivermectin [Ivermectin Farmacia (IVM-f)] |  | 75 µM | 67% |  | 101% | % viability Calu-3 ([3]; listed as IVM-f): < 80% |
| CCN(CCO)CCCC(C)Nc1ccnc2cc(Cl)ccc12 (stereo not shown) [Hydroxychloroquine sulfate (HCQ), Hydroxychloroquine sulfate] |  |  | 64% | < 80% | 47% | % viability Vero E6 ([5]; listed as HCQ sulfate): < 80%; CC50 at 72 h ([6]; CC50% in µg/mL, Vero E6): 23.2 µg/mL; CC50 at 72 h ([6]; CC50%, Vero E6): 72.1 µM; CC50 at 72 h [6, 10]: 72.1 µM; Cmax (maximum plasma concentration) [7]: 130 ng/mL |
| CN(C)c1ccc2nc3ccc(=[N+](C)C)cc-3sc2c1 [Methylene Blue Injection (MBi), Methylene Blue] | 84% | 5 µM |  | 89% |  |  |
| CCN(CC)Cc1cc(Nc2ccnc3cc(Cl)ccc23)ccc1O [Amodiaquine (AQ), Amodiaquine] | 84% | 20 µM |  | 82% |  |  |
| C=C[C@H]1C[N@@]2CC[C@H]1C[C@H]2[C@H](O)c1ccnc2ccc(OC)cc12 [Quinine Sulfate (QN), Quinine Sulfate] | < 80% | 5 µM |  | 90% | 74% |  |
| CCc1nc(N)nc(N)c1-c1ccc(Cl)cc1 [Pyrimethamina (PYR), Pyrimethamina] | 94% | 125 µM |  | 92% |  |  |
| CCN(CC)CCCC(C)Nc1ccnc2cc(Cl)ccc12 (stereo not shown) [Chloroquine diphosphate (CQ), Chloroquine diphosphate] | 103% | 5 µM |  | 105% |  | CC50 at 72 h ([6]; CC50% in µg/mL, Vero E6): 17 µg/mL; CC50 at 72 h ([6]; CC50%, Vero E6): 53.2 µM; CC50 at 72 h [6, 10]: 57.1 µM; Cmax (maximum plasma concentration) [7]: 2700 ng/mL; EC50 [8]: 2.1 µM; EC90 [8]: 3.8 µM |
| C[C@H]1[C@@H](OCc2ccc(C(=O)O)cc2)O[C@@H]2O[C@@]3(C)CC[C@H]4[C@H](C)CC[C@@H]1[C@@]24OO3 [Artelinic Acid (AA), Artelinic Acid] |  | 30 µM | 92% |  | 100% |  |
| C[C@H]1[C@H](OC(=O)CCC(=O)O)O[C@@H]2O[C@@]3(C)CC[C@H]4[C@H](C)CC[C@@H]1[C@@]24OO3 [Artesunic acid (AS), Artesunic acid] | < 80% | 125 µM | 74% | < 80% | 74% |  |
| CCO[C@H]1O[C@@H]2O[C@@]3(C)CC[C@H]4[C@H](C)CC[C@@H]([C@H]1C)[C@@]24OO3 [Arteether (AE), Arteether] | 104% | 125 µM |  | 97% |  |  |
| C[C@H]1[C@H](OC(=O)CCC(=O)O)O[C@@H]2O[C@@]3(C)CC[C@H]4[C@H](C)CC[C@@H]1[C@@]24OO3 [Artesunate injection (ASi), Artesunate] |  | 50 µM | 82% |  | 81% | CC50 at 72 h ([6]; CC50% in µg/mL, Vero E6): 27 µg/mL; CC50 at 72 h ([6]; CC50%, Vero E6): 70.3 µM; Cmax (maximum plasma concentration) [7]: 3300 ng/mL; MNCC Concentration ([2]; listed as ASi): 50 µM |
| NC(=O)c1ncn([C@@H]2O[C@H](CO)[C@@H](O)[C@H]2O)n1 [Ribavirin (RIB), Ribavirin] | 104% | 250 µM |  | 91% |  |  |
| COc1cc(NC(C)CCCN)c2ncccc2c1 (stereo not shown) [Primaquine Phosphate (PQ), Primaquine Phosphate] | 106% | 15 µM |  | 87% |  | CC50 at 72 h ([6]; CC50% in µg/mL, Vero E6): 5.5 µg/mL; CC50 at 72 h ([6]; CC50%, Vero E6): 21.2 µM; CC50 at 72 h [6, 10]: 21.2 µM; Cmax (maximum plasma concentration) [7]: 50 ng/mL |
| CCN(CCO)CCCC(C)Nc1ccnc2cc(Cl)ccc12 (stereo not shown) [Hydroxychloroquine Minsa (HCQ-m), Hydroxychloroquine] |  |  | 84% |  | 72% | % viability Vero E6 ([5]; listed as HCQ-m): < 80% |
| CC[C@H](C)[C@H]1O[C@]2(CC[C@@H]1C)C[C@@H]1C[C@@H](C/C=C(\C)[C@@H](O[C@H]3C[C@H](OC)[C@@H](O[C@H]4C[C@H](OC)[C@@H](O)[C@H](C)O4)[C@H](C)O3)[C@@H](C)/C=C/C=C3\CO[C@@H]4[C@H](O)C(C)=C[C@@H](C(=O)O1)[C@]34O)O2 [Ivermectin (IVM), Ivermectin] |  | 8 µM | 87% |  | 93% | CC50 [9]: 74 µM; CC50% [9]: 64.8 µg/mL (≈ 74 µM); Cmax (maximum plasma concentration) [7]: 50 ng/mL |
| CCCCN(CCCC)CC(O)c1cc(Cl)cc2c1-c1ccc(Cl)cc1/C2=C/c1ccc(Cl)cc1 (stereo not shown) [Lumefantrine (LUM), Lumefantrine] | 86% | 250 µM |  | 86% |  |  |
| COc1ccc2nc3cc(Cl)ccc3c(Nc3cc(CN4CCCC4)c(O)c(CN4CCCC4)c3)c2n1 [Pyranoridine (PNO), Pyranoridine] |  | 5 µM | 78% |  | 91% | % viability Calu-3 ([3]; listed as PNO): < 80% |
| CN(C)C(=O)COC(=O)Cc1ccc(OC(=O)c2ccc(NC(=N)N)cc2)cc1 [Camostat mesylate (CAM), Camostat mesylate] | 118% | 50 µM |  | 112% |  |  |
| COc1c(C)c2c(c(O)c1C/C=C(\C)CCC(=O)O)C(=O)OC2 [Mycophenolic acid (MYC), Mycophenolic acid] | 107% | 5 µM |  | 109% |  |  |
| OC(c1cc(C(F)(F)F)nc2c(C(F)(F)F)cccc12)C1CCCCN1 (stereo not shown) [Mefloquine (MQ), Mefloquine] | 105% | 30 µM |  | 82% |  |  |
| Ferroquine [Ferroquine (FQ)] |  | 5 µM | 63% |  | 75% | % viability Vero E6 ([5]; listed as FQ): < 80% |
| C[C@H]1[C@H](N2CCS(=O)(=O)CC2)O[C@@H]2O[C@@]3(C)CC[C@H]4[C@H](C)CC[C@@H]1[C@@]24OO3 [Artemisone (ASO), Artemisone] | 92% | 125 µM |  | 93% |  |  |
| CC[C@H]1OC(=O)[C@H](C)[C@@H](O[C@H]2C[C@@](C)(OC)[C@@H](O)[C@H](C)O2)[C@H](C)[C@@H](O[C@@H]2O[C@H](C)C[C@H](N(C)C)[C@H]2O)[C@](C)(O)C[C@@H](C)CN(C)[C@H](C)[C@@H](O)[C@]1(C)O [Azithromycin dehydrate (AZH), Azithromycin dehydrate] | 92% | 30 µM |  | 87% |  |  |
| Ivermectin [Ivermectin Liquida (IVM-li)] |  | 30 µM | 87% |  | 85% |  |
